Measured values as given in US20240059677A1, “SUBSTITUTED PYRIMIDINE DERIVATIVES AS NICOTINIC ACETYLCHOLINESTERASE RECEPTOR ALPHA 6 MODULATOR” (priority 2020, published 2024).

What follows are compounds tested against T1, human nAChRα6-α3 chimera, in addition to β2 and β3^V273S subunits (Homo sapiens, UniProt P32297+Q15825) (assay: fluorescence-based calcium assay: inhibition of nicotine stimulated nAChRα6 activity (FLIPR)). Details: HEK cell line stably expressing the receptor; 10 min pre-incubation, nicotine EC80; 10-point curve, duplicate wells; read-out: IC50.
T1 construct: expressed in transfected cells
T1 sequence (Q05901 25-458 V273S): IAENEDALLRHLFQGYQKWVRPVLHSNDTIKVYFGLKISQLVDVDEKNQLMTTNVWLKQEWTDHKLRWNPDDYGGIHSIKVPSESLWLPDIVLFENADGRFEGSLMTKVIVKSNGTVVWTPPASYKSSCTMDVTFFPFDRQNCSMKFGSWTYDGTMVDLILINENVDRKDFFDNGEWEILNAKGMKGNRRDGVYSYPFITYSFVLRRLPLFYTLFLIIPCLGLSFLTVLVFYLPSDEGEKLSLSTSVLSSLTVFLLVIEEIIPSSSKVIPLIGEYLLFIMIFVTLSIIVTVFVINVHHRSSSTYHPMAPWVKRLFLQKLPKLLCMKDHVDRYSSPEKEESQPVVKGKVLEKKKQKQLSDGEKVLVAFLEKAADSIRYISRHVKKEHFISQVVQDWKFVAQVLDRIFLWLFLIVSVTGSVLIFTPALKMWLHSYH
T1 sequence (P17787 26-502, stated change not applied, further chain): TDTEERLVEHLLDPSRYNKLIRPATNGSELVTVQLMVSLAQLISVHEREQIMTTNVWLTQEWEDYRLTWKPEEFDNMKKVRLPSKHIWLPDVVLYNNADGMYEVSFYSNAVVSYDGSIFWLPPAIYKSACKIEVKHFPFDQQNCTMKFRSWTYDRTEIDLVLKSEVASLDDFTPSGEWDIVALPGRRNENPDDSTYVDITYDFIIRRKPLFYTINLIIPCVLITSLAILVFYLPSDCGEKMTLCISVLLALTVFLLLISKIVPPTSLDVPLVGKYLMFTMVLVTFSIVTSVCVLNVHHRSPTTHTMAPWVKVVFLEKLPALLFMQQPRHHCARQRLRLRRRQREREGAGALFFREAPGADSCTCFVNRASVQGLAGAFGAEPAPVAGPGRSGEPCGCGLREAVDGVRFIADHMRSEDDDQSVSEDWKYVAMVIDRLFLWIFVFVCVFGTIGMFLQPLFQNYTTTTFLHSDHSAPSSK
T1 sequence (Q15825+P32297 fused with the stated changes): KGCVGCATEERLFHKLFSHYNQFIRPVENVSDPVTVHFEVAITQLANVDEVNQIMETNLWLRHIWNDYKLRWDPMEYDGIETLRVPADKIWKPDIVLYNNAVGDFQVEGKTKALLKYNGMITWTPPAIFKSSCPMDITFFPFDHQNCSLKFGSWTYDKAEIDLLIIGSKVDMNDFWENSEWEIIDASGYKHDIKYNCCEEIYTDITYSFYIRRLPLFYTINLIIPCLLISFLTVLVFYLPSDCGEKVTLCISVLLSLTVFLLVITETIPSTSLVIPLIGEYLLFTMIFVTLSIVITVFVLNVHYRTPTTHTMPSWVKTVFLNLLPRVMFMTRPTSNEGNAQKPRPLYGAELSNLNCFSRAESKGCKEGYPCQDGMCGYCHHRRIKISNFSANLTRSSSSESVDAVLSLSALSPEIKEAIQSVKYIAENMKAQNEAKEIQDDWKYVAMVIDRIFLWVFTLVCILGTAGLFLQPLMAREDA
Method: The ability of the test compounds to inhibit nicotine stimulated nAChRα6 activity was determined in a fluorescence-based calcium assay. Compound activity was determined using a HEK cell line stably expressing a human nAChRα6-α3 chimera, in addition to β2 and β3^V273S subunits (as in Capelli et al, Br J Pharmacol 163(2): 313-29 2011). In this cell line, nicotine stimulated an increase in intracellular calcium concentration, measured as an increase in fluorescence when cells were incubated with a calcium sensitive dye. Test compounds were pre-incubated with cells prior to nicotine stimulation to detect any reduction in the magnitude of the nicotine response.
The day prior to the assay, compounds were serially diluted in DMSO (200× final assay concentration (FAC)), in 384-well plates which were then stored in the dark at room temperature (RT) until use. Cells were seeded at 20 k/well in black, poly-D-lysine coated, clear bottom 384-well plates and incubated for 4 hours at 37° C., followed by overnight incubation at 30° C. The following day, the DMSO compound plate was diluted 1:20 (10×FAC) in assay buffer (HEPES buffered saline solution with 10 mM HEPES, 0.1% bovine serum albumin, 1 mM probenecid). A nicotine solution was prepared in assay buffer (7×FAC) and dispensed into a 384-well plate. The growth media was removed from the cell plate, replaced with 53 μl calcium dye/well (Calcium 5; Molecular Devices) and the plate incubated at 30° C. for 45 minutes. Test compounds were then added to the cells (7 μl of 10×FAC) and incubated for 10 minutes, after which nicotine EC80 (10 μl of 7×FAC) was added and changes in fluorescence measured using a FLIPR plate reader (Molecular Devices).
Compound activity was examined using a 10-point, half-log concentration-response range and each concentration was tested in duplicate wells.
In the case of COc1ccc(-c2nnc(NC3CCCN(C)C3)nc2C)c(F)c1 (single isomer, unassigned) [Example 69a, 6-(2-fluoro-4-methoxyphenyl)-5-methyl-N-(1-methylpiperidin-3-yl)-1,2,4-triazin-3-amine], the IC50 is reported as 436 nM. COc1ccc(-c2nnc(NC3CCCN(C)C3)nc2C)c(F)c1 (single isomer, unassigned) [Example 69b, 6-(2-fluoro-4-methoxyphenyl)-5-methyl-N-(1-methylpiperidin-3-yl)-1,2,4-triazin-3-amine] was tested, and the IC50 was 309 nM. In the case of Cc1nc(NCC2CCCN2C)nnc1-c1ccc(F)cc1F (single isomer, unassigned) [Example 74a, 6-(2,4-difluorophenyl)-5-methyl-N-((1-methylpyrrolidin-2-yl)methyl)-1,2,4-triazin-3-amine], the IC50 is reported as 693 nM. In the case of Cc1nc(NCC2CCCN2C)nnc1-c1ccc(F)cc1F (single isomer, unassigned) [Example 74b, 6-(2,4-difluorophenyl)-5-methyl-N-((1-methylpyrrolidin-2-yl)methyl)-1,2,4-triazin-3-amine], the IC50 is reported as 1470 nM. In the case of COc1ccc(-c2nnc(NC3CCCN(C(C)C)C3)nc2C)c(F)c1 (single isomer, unassigned) [Example 76a, 6-(2-fluoro-4-methoxyphenyl)-N-(1-isopropylpiperidin-3-yl)-5-methyl-1,2,4-triazin-3-amine], the IC50 is reported as 118 nM. COc1ccc(-c2nnc(NC3CCCN(C(C)C)C3)nc2C)c(F)c1 (single isomer, unassigned) [Example 76b, 6-(2-fluoro-4-methoxyphenyl)-N-(1-isopropylpiperidin-3-yl)-5-methyl-1,2,4-triazin-3-amine] showed an IC50 of 107 nM. With Cc1nc(NC2CCCN(C)C2)ncc1-c1ccc(F)cc1F (single isomer, unassigned) [Example 77a, 5-(2,4-difluorophenyl)-4-methyl-N-(1-methylpiperidin-3-yl)pyrimidin-2-amine] the IC50 was 70 nM. Cc1nc(NC2CCCN(C)C2)ncc1-c1ccc(F)cc1F (single isomer, unassigned) [Example 77b, 5-(2,4-difluorophenyl)-4-methyl-N-(1-methylpiperidin-3-yl)pyrimidin-2-amine] gave an IC50 of 93 nM. CCN1CCC[C@@H](Nc2ncc(-c3ccc(F)cc3F)c(C)n2)C1 (single isomer, unassigned) [Example 78a] gave an IC50 of 61 nM. For Cc1nc(NCC2COCCN2C)ncc1-c1ccc(F)cc1F (single isomer, unassigned) [Example 79a, 5-(2,4-difluorophenyl)-4-methyl-N-((4-methylmorpholin-3-yl)methyl) pyrimidin-2-amine], the IC50 was 420 nM. Cc1nc(NCC2COCCN2C)ncc1-c1ccc(F)cc1F (single isomer, unassigned) [Example 79b, 5-(2,4-difluorophenyl)-4-methyl-N-((4-methylmorpholin-3-yl)methyl) pyrimidin-2-amine] gave an IC50 of 296 nM. In the case of Cc1nc(NCC2NCCC2(F)F)ncc1-c1ccc(F)cc1F (single isomer, unassigned) [Example 83a, 5-(2,4-difluorophenyl)-N-((3,3-difluoropyrrolidin-2-yl)methyl)-4-methyl-pyrimidin-2-amine], the IC50 is reported as 1150 nM. Work on Cc1nc(NCC2NCCC2(F)F)ncc1-c1ccc(F)cc1F (single isomer, unassigned) [Example 83b, 5-(2,4-difluorophenyl)-N-((3,3-difluoropyrrolidin-2-yl)methyl)-4-methyl-pyrimidin-2-amine] yielded an IC50 of 456 nM. With Cc1nc(NCC2N(C)CCC2(F)F)ncc1-c1ccc(F)cc1F (single isomer, unassigned) [Example 84a, N-((3,3-difluoro-1-methylpyrrolidin-2-yl)methyl)-5-(2,4-difluorophenyl)-4-methyl-pyrimidin-2-amine] the IC50 was 1530 nM. Cc1nc(NCC2N(C)CCC2(F)F)ncc1-c1ccc(F)cc1F (single isomer, unassigned) [Example 84b, N-((3,3-difluoro-1-methylpyrrolidin-2-yl)methyl)-5-(2,4-difluorophenyl)-4-methyl-pyrimidin-2-amine] showed an IC50 of 1650 nM. Compound Cc1nc(NC2CCN3CCCC23)ncc1-c1ccc(F)cc1F (single isomer, unassigned) [Example 86a, N-(5-(2,4-difluorophenyl)-4-methyl-pyrimidin-2-yl)hexahydro-1H-pyrrolizin-1-amine] has an IC50 of 122 nM. In the case of Cc1nc(NC2CCN3CCCC23)ncc1-c1ccc(F)cc1F (single isomer, unassigned) [Example 86b, N-(5-(2,4-difluorophenyl)-4-methyl-pyrimidin-2-yl)hexahydro-1H-pyrrolizin-1-amine], the IC50 is reported as 126 nM. In the case of Cc1nc(NCC2C(F)CCN2C)ncc1-c1ccc(F)cc1F (single isomer, unassigned) [Example 96a, 5-(2,4-difluorophenyl)-N-((3-fluoro-1-methylpyrrolidin-2-yl)methyl)-4-methyl-pyrimidin-2-amine], the IC50 is reported as 151 nM. Cc1nc(NCC2C(F)CCN2C)ncc1-c1ccc(F)cc1F (single isomer, unassigned) [Example 96b, 5-(2,4-difluorophenyl)-N-((3-fluoro-1-methylpyrrolidin-2-yl)methyl)-4-methyl-pyrimidin-2-amine] gave an IC50 of 99 nM. Compound Cc1nc(NC2CCN3CCCC23)ncc1-c1ccc(OC(F)(F)F)cc1F (single isomer, unassigned) [Example 97a, N-(5-(2-fluoro-4-(trifluoromethoxy)phenyl)-4-methyl-pyrimidin-2-yl)hexahydro-1H-pyrrolizin-1-amine] has an IC50 of 184 nM. For Cc1nc(NC2CCN3CCCC23)ncc1-c1ccc(OC(F)(F)F)cc1F (single isomer, unassigned) [Example 97b, N-(5-(2-fluoro-4-(trifluoromethoxy)phenyl)-4-methyl-pyrimidin-2-yl)hexahydro-1H-pyrrolizin-1-amine], the IC50 was 152 nM. Cc1nc(NC2CCN3CCCC23)ncc1-c1ccc(OC(F)(F)F)cc1F (single isomer, unassigned) [Example 97c, N-(5-(2-fluoro-4-(trifluoromethoxy)phenyl)-4-methyl-pyrimidin-2-yl)hexahydro-1H-pyrrolizin-1-amine] showed an IC50 of 180 nM. Cc1nc(NC2CCN3CCCC23)ncc1-c1ccc(OC(F)(F)F)cc1F (single isomer, unassigned) [Example 97d, N-(5-(2-fluoro-4-(trifluoromethoxy)phenyl)-4-methyl-pyrimidin-2-yl)hexahydro-1H-pyrrolizin-1-amine] was tested, and the IC50 was 299 nM. Cc1nc(NC[C@@H]2CN(C)CCO2)ncc1-c1ccc(C(F)(F)F)cc1F (single isomer, unassigned) [Example 108a] gave an IC50 of 86 nM. Cc1nc(NC[C@H]2CN(C)CCO2)ncc1-c1ccc(C(F)(F)F)cc1F (single isomer, unassigned) [Example 108b] was tested, and the IC50 was 77 nM. Work on Cc1nc(NC(C)[C@H]2CCCN2)ncc1-c1ccc(C(F)(F)F)cc1F (single isomer, unassigned) [Example 129a, 5-(2-fluoro-4-(trifluoromethyl)phenyl)-4-methyl-N-((1*R)-1-((2R)-pyrrolidin-2-yl)ethyl)pyrimidin-2-amine] yielded an IC50 of 65 nM. Cc1nc(NC(C)[C@H]2CCCN2)ncc1-c1ccc(C(F)(F)F)cc1F (single isomer, unassigned) [Example 129b, 5-(2-fluoro-4-(trifluoromethyl)phenyl)-4-methyl-N-((1*S)-1-((2R)-pyrrolidin-2-yl)ethyl)pyrimidin-2-amine] was tested, and the IC50 was 105 nM. In the case of Cc1nc(NC(C)[C@@H]2CCCN2)ncc1-c1ccc(C(F)(F)F)cc1F (single isomer, unassigned) [Example 130a, 5-(2-fluoro-4-(trifluoromethyl)phenyl)-4-methyl-N-((1*R)-1-((2S)-pyrrolidin-2-yl)ethyl)pyrimidin-2-amine], the IC50 is reported as 118 nM. In the case of Cc1nc(NC(C)[C@@H]2CCCN2)ncc1-c1ccc(C(F)(F)F)cc1F (single isomer, unassigned) [Example 130b, 5-(2-fluoro-4-(trifluoromethyl)phenyl)-4-methyl-N-((1*S)-1-((2S)-pyrrolidin-2-yl)ethyl)pyrimidin-2-amine], the IC50 is reported as 49 nM. In the case of Cc1nc(NC(C)[C@H]2CCCN2C)ncc1-c1ccc(C(F)(F)F)cc1F (single isomer, unassigned) [Example 131a, 5-(2-fluoro-4-(trifluoromethyl)phenyl)-4-methyl-N-((1*R)-1-((2R)-1-methylpyrrolidin-2-yl)ethyl)pyrimidin-2-amine], the IC50 is reported as 172 nM. Work on Cc1nc(NC(C)[C@H]2CCCN2C)ncc1-c1ccc(C(F)(F)F)cc1F (single isomer, unassigned) [Example 131b, 5-(2-fluoro-4-(trifluoromethyl)phenyl)-4-methyl-N-((1*S)-1-((2R)-1-methylpyrrolidin-2-yl)ethyl)pyrimidin-2-amine] yielded an IC50 of 291 nM.
